Measurements published in ChEMBL document CHEMBL1143622 (J Med Chem, 2005).

Tests used:
[1] = Inhibitory activity against Coagulation factor X
[2] = biological target: Integrin alpha-IIb/beta-3 (Homo sapiens, UniProt P05106+P08514); assay: Inhibitory activity against binding of Fibrinogen to thrombocyte alpha IIb beta-3 integrin; format: protein-complex assay
[3] = Inhibitory activity against trypsin
[4] = Inhibitory activity against thrombin
[5] = biological target: Thrombin & trypsin (Homo sapiens) (UniProt P00734+P07477+P07478+P35030); assay: Selectivity against Thrombin to that of trypsin; format: protein assay
[6] = Inhibitory activity against thrombocyte aggregation induced by collagen; format: functional
[7] = Inhibitory activity against thrombocyte aggregation induced by ADP; format: functional

Chain of Integrin alpha-IIb/beta-3 (P05106 27-788 limits assumed): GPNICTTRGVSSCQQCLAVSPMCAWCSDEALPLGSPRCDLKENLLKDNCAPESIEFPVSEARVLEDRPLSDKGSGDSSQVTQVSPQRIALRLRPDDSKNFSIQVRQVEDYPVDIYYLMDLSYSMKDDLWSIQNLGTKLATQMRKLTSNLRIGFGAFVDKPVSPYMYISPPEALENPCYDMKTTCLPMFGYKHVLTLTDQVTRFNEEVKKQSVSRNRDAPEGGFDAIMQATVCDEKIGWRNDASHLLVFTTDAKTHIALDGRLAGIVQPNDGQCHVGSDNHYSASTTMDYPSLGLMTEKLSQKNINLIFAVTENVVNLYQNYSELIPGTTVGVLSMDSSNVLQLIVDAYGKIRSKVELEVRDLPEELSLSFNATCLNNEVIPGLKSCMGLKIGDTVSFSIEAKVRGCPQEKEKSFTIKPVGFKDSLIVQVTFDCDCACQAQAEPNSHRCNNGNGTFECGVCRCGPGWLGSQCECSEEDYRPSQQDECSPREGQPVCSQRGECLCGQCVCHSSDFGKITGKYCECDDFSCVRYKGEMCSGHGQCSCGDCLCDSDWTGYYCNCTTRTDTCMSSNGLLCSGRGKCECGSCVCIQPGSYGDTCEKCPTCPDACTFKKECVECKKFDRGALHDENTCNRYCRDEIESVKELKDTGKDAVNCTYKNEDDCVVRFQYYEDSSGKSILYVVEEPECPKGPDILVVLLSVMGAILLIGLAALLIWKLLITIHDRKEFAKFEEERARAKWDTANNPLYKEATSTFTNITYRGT
Chain of Integrin alpha-IIb/beta-3 (P08514 32-887 limits assumed): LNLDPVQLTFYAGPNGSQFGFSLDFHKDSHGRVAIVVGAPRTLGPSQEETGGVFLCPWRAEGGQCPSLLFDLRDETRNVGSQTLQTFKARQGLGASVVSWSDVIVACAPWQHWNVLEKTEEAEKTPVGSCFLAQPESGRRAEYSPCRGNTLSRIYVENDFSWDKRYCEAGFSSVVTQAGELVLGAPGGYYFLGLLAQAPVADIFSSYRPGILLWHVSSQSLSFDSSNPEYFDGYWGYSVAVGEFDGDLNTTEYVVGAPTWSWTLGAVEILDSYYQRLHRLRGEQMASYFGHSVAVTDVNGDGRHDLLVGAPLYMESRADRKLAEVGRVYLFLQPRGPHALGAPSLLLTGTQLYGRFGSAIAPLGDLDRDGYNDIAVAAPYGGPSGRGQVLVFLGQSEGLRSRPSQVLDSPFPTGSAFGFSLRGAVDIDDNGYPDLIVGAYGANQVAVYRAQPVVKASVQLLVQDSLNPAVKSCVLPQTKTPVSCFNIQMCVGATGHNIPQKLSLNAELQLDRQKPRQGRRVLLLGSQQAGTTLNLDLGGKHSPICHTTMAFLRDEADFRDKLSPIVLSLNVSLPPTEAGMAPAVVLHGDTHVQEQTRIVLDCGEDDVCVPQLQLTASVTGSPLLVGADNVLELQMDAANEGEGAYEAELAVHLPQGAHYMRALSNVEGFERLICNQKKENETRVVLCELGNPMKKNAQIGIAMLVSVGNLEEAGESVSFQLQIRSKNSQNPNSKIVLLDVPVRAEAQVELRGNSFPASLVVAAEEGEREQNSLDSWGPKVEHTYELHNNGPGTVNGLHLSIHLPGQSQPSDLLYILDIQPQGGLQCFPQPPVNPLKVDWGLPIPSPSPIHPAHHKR
Chain of Integrin alpha-IIb/beta-3 (P08514 891-1039 limits assumed): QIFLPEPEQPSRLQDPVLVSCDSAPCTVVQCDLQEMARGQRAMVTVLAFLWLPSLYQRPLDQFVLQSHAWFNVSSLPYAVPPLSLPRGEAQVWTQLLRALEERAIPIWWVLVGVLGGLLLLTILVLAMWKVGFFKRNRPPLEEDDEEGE

| Ki [1] [µM] | Ki [2] [µM] | Ki [3] [µM] | Ki [4] [µM] | Selectivity [5] | IC50 [6] [µM] | IC50 [7] [µM] | SMILES |
| --- | --- | --- | --- | --- | --- | --- | --- |
| 54.1 | 3.94 | 46.2 | 23.3 | 2 | – | – | CCOC(=O)CC[C@H](NC(=O)[C@H](Cc1ccccc1)C(=O)Nc1ccc2c(c1)OCC(=O)N2Cc1ccc(C(=N)N)cc1)C(=O)OCC |
| 22.3 | 0.973 | 5.3 | 38.6 | 0.14 | 85 | 63 | COC(=O)C(Cc1ccccc1)C(=O)Nc1ccc2c(c1)OCC(=O)N2Cc1ccc(C(=N)N)cc1 (stereo not given) |
| 19.2 | 3.66 | 10.5 | 21.6 | 0.5 | – | – | CCOC(=O)CC[C@H](NC(=O)C(Cc1ccccc1)C(=O)Nc1ccc2c(c1)OCC(=O)N2Cc1ccc(C(=N)N)cc1)C(=O)OCC (stereo not given in full) |
| 26.8 | 7.3 | 12.1 | 21.3 | 0.57 | – | – | CCOC(=O)[C@H](C)NC(=O)C(Cc1ccccc1)C(=O)Nc1ccc2c(c1)OCC(=O)N2Cc1ccc(C(=N)N)cc1 (stereo not given in full) |
| 54.6 | 24.6 | 16 | – | 4.2 | – | – | CCOC(=O)C[C@H](NC(=O)c1ccc2c(c1)OC(OCc1ccc(C(=N)N)cc1)C(=O)N2C)c1ccccc1 (stereo not given in full) |
| 8.8 | 5.19 | 5.5 | 16.3 | 0.3 | – | – | CCOC(=O)[C@H](Cc1ccccc1)C(=O)Nc1ccc2c(c1)OCC(=O)N2Cc1ccc(C(=N)N)cc1 |
| 25.7 | 0.206 | 17.7 | 49.4 | 0.4 | – | – | N=C(N)c1ccc(CN2C(=O)COc3cc(NC(=O)C(Cc4ccccc4)C(=O)N[C@@H](CCC(=O)O)C(=O)O)ccc32)cc1 (stereo not given in full) |
| 20.6 | 6.84 | 8.4 | 12.1 | 0.69 | – | – | CCOC(=O)CNC(=O)C(Cc1ccccc1)C(=O)Nc1ccc2c(c1)OCC(=O)N2Cc1ccc(C(=N)N)cc1 (stereo not given) |
| 21.1 | 59.1 | 9.6 | 20.6 | 0.5 | – | – | CCOC(=O)[C@H](C)NC(=O)[C@H](Cc1ccccc1)C(=O)Nc1ccc2c(c1)OCC(=O)N2Cc1ccc(C(=N)N)cc1 |
| > 200 | 1.64 | 26.5 | 14.9 | – | – | – | CN1C(=O)C(OCc2ccc(C(=N)N)cc2)Oc2cc(C(=O)N[C@@H](CC(=O)O)c3ccccc3)ccc21 (stereo not given in full) |
| 31.6 | 3.94 | 5.5 | 53.8 | 0.1 | – | – | N=C(N)c1ccc(CN2C(=O)COc3cc(NC(=O)C(Cc4ccccc4)C(=O)O)ccc32)cc1 (stereo not given) |
